For series [1], the system named is acute musculoskeletal pain. The following applies: data collected from similar trials, same protocol, scales, center and team, agents and doses per Table 5, FIG. 1, cited from earlier work.
Series [2] relates to acute pain due to fracture. Particulars: intravenous, public domain data; cited from earlier work.
The conditions of series [3]: cited from earlier work.
Series [4] in a line: Compatibility of ketamine and aspirin with spray coating solvents. The following applies: alcohol solvents for ketamine, aqueous solutions for aspirin.
Series [5] can be described thus: Ketamine pharmacokinetics and onset of action by route (background). Particulars: ketamine given concurrently through the GI.
For series [6] the following is noted: in vivo; cited from earlier work.
The conditions of series [7]: cited from earlier work. The source holds these as a separate data set.

Where two headings read alike, the source gives them in different places.

The values that follow come from US20250099402A1, “COMPOSITIONS OF ASPIRIN AND KETAMINE” (Vitalis Analgesics LLC, priority 2022, published 2025).

`CN1CC[C@]23c4c5ccc(O)c4O[C@H]2[C@@H](O)C=C[C@H]3[C@H]1C5` [IV morphine, Morphine]: the “reduction of acute musculoskeletal pain, comparator agents” value (from here on “reduction of acute musculoskeletal pain”) in series [1] is given as 5.1 points.
For the compound `CNC1(c2ccccc2Cl)CCCCC1=O` (centres unmarked) [ketamine], in series [1] (listed as intranasal (nebulized) ketamine), the “reduction of acute musculoskeletal pain” value is “about 4 points”. Further, the “time of peak pain reduction effect” value in series [2] is recorded as “about 5 mins”. Moreover, in series [3] (in vivo), the elimination half-life is 2 to 3 h. Besides, in series [3] (intramuscular), the “bioavailability, intramuscular injection” value is reported as “about 93%”. For the same compound, in series [3] (intravenous), the “bioavailability, IV” value was “about 100%”. In addition, in series [3] (oral), the “time to maximal concentrations, orally” value was 30 min. Also, the “bioavailability, oral route” value in series [3] (oral, listed as oral ketamine) was 18-20%. For the same compound, the “stability in spray coating solvent” value in series [4] is “reacted with alcohol solvents leading to impurities”. Further, the “serum peak concentration later than directly absorbed ketamine” value in series [5] lay in the range of 15 to 20 min.
For `NC1(c2ccccc2Cl)CCCCC1=O` (centres unmarked) [norketamine], in series [6], the “potency as an anesthetic relative to ketamine” value is recorded as “one-third to one-fifth”. In addition, the “plasma levels relative to ketamine” value in series [3] (following oral administration of ketamine) is “three times higher”.
Turning to `CC(C)Cc1ccc(C(C)C(=O)O)cc1` (centres unmarked) [oral ibuprofen, Ibuprofen], in series [1], the “reduction of acute musculoskeletal pain” value is listed as 2 points.
On to `CN1CC[C@]23c4c5ccc(O)c4O[C@H]2[C@@H](O)C=C[C@H]3[C@H]1C5.O=S(=O)(O)O` [oral morphine, Morphine Sulfate], for which, in series [1], the “reduction of acute musculoskeletal pain” value is recorded as “about 4 points”.
As to `N[C@@H]1c2cccnc2[C@H](OC(=O)N2CCC(n3c(=O)[nH]c4ncccc43)CC2)CC[C@H]1c1cccc(F)c1F` [rimegepant], the absolute oral bioavailability entry in series [7] (in vivo, po) is given as “approximately 64%”. For the same compound, the “eliminated in unchanged form” value in series [7] (in vivo) is listed as ~77 % of the dose. The “time of maximum concentration” value in series [7] (oral administration of NURTEC Orally Disintegrating Tablet) was 1.5 h.
